Data on 15 compounds can be found in patent publication US20230295115A1, “SUBSTITUTED ISOQUINOLINYLMETHYL AMIDES, ANALOGUES THEREOF, AND METHODS USING SAME” (priority 2020, published 2023).

Some results are limits rather than exact numbers.

For this test, the system named is HBV rcDNA. The test is described as follows: HepDE19 assay with bDNA quantitation of HBV rcDNA. The test is classed as cell-based, hepatitis B virus (HBV). To be noted: HepDE19 cells, 7 day incubation, rcDNA measured by Quantigene 2.0 bDNA assay, top concentration 25 μM; read-out: DE-19bDNA EC50. How it is done: HepDE19 assay with bDNA quantitation of HBV rcDNA:
HepDE19 (50,000 cells/well) were plated in 96-well collagen-coated tissue-culture treated microtiter plates in DMEM/F12 medium supplemented with 10% fetal bovine serum, 1% penicillin-streptomycin and 1 μg/mL tetracycline and incubated in a humidified incubator at 37° C. and 5% CO2 overnight. Next day, the cells were switched to fresh medium without tetracycline and incubated for 4 hours at 37° C. and 5% CO2. […] The final DMSO concentration in the assay was 0.5%. The plates were incubated for 7 days in a humidified incubator at 37° C. and 5% CO2. Following a 7 day-incubation, the level of rcDNA present in the inhibitor-treated wells was measured using a Quantigene 2.0 bDNA assay kit (Affymetrix, Santa Clara, CA) with HBV specific custom probe set and manufacturers instructions. Concurrently, the effect of compounds on cell viability was assessed using replicate plates, plated at a density of 5,000 cells/well and incubated for 4 days, to determine the ATP content as a measure of cell viability using the cell-titer glo reagent (CTG; Promega Corporation, Madison, WI) as per manufacturer's instructions.

Turning to `CC(c1c[nH]c(=O)c2cc(F)c(F)cc12)N(C)C(=O)[C@@H]1Cc2ccccc2CN1` (single isomer, unassigned) [Compound 20], the concentration giving a half-maximal response (EC50) (as a rule, the concentration at which the effect is half-maximal) stood at 9.2 µM.

As to `CC(c1c[nH]c(=O)c2cc(F)c(F)cc12)N(C)C(=O)[C@H]1Cc2ccccc2N1` (single isomer, unassigned) [Compound 21], the 50% effective concentration (EC50) turned out to be 0.3 µM.

On to `CC(c1c[nH]c(=O)c2cc(F)c(F)cc12)N(C)C(=O)[C@H]1Cc2ccccc2N1` (single isomer, unassigned) [Compound 22], for which the 50% effective concentration (EC50) stood at 3.7 µM.

For `CC(c1c[nH]c(=O)c2cc(F)c(F)cc12)N(C)C(=O)c1nc2ccccc2[nH]1` (single isomer, unassigned) [Compound 23, N-(1-(6,7-Difluoro-1-oxo-1,2-dihydroisoquinolin-4-yl)ethyl)-N-methyl-1H-benzo[d]imidazole-2-carboxamide], the concentration for a half-maximal effect (EC50) is ≥ 25 µM.

For `CC(c1c[nH]c(=O)c2cc(F)c(F)cc12)N(C)C(=O)c1nc2ccccc2[nH]1` (single isomer, unassigned) [Compound 24, N-(1-(6,7-Difluoro-1-oxo-1,2-dihydroisoquinolin-4-yl)ethyl)-N-methyl-1H-benzo[d]imidazole-2-carboxamide], the EC50 was 0.76 µM.

On to `CC(c1c[nH]c(=O)c2cc(F)c(F)cc12)N(C)C(=O)c1cc2ccccc2o1` (single isomer, unassigned) [Compound 25, N-(1-(6,7-Difluoro-1-oxo-1,2-dihydroisoquinolin-4-yl)ethyl)-N-methylbenzofuran-2-carboxamide], for which the EC50 is 17 µM.

As to `CC(c1c[nH]c(=O)c2cc(F)c(F)cc12)N(C)C(=O)c1cc2ccccc2o1` (single isomer, unassigned) [Compound 26, N-(1-(6,7-Difluoro-1-oxo-1,2-dihydroisoquinolin-4-yl)ethyl)-N-methylbenzofuran-2-carboxamide], the concentration for a half-maximal effect (EC50) worked out at 0.35 µM.

As to `CC(c1c[nH]c(=O)c2cc(F)c(F)cc12)N(CCCO)C(=O)c1cc2ccccc2[nH]1` (single isomer, unassigned) [Compound 27, N-(1-(6,7-Difluoro-1-oxo-1,2-dihydroisoquinolin-4-yl)ethyl)-N-(3-hydroxypropyl)-1H-indole-2-carboxamide], the EC50 came out at 2.9 µM.

As for `CC(c1c[nH]c(=O)c2cc(F)c(F)cc12)N(CCCO)C(=O)c1cc2ccccc2[nH]1` (single isomer, unassigned) [Compound 28, N-(1-(6,7-Difluoro-1-oxo-1,2-dihydroisoquinolin-4-yl)ethyl)-N-(3-hydroxypropyl)-1H-indole-2-carboxamide], the half-maximal effective concentration (EC50) was found to be 0.04 µM.

Regarding `CC(c1c[nH]c(=O)c2cc(F)c(F)cc12)N(C)C(=O)[C@@H]1Cc2ccccc2N1` (single isomer, unassigned) [Compound 30], the EC50 amounted to 0.02 µM.

On to `CC(c1c[nH]c(=O)c2cc(F)c(F)cc12)N(C)C(=O)[C@@H]1Cc2ccccc2N1` (single isomer, unassigned) [Compound 31], for which the concentration for a half-maximal effect (EC50) stood at 20 µM.

Consider `CC(c1c[nH]c(=O)c2cc(F)c(F)cc12)N(C)C(=O)[C@H]1Cc2ccccc2CN1` (single isomer, unassigned) [Compound 32], for which the EC50 is ≥ 25 µM.

Turning to `CC(c1c[nH]c(=O)c2cc(F)c(F)cc12)N(C)C(=O)[C@H]1Cc2ccccc2CN1` (single isomer, unassigned) [Compound 33], the EC50 was 6.6 µM.

Take `CC(c1c[nH]c(=O)c2cc(F)c(F)cc12)N(C)C(=O)c1cc2ccccc2n1C` (single isomer, unassigned) [Compound 43, N-(1-(6,7-Difluoro-1-oxo-1,2-dihydroisoquinolin-4-yl)ethyl)-N,1-dimethyl-1H-indole-2-carboxamide]: the EC50 amounted to 4.3 µM.

Take `CC(c1c[nH]c(=O)c2cc(F)c(F)cc12)N(C)C(=O)c1cc2ccccc2n1C` (single isomer, unassigned) [Compound 44, N-(1-(6,7-Difluoro-1-oxo-1,2-dihydroisoquinolin-4-yl)ethyl)-N,1-dimethyl-1H-indole-2-carboxamide]: the half-maximal effective concentration (EC50) amounted to 0.3 µM.
